In US10138244B2, “Triazolopyrazinone derivative useful as a human PDE1 inhibitor” (Eli Lilly and Company, priority 2016, dated 2018):

Experiments:
Format in all cases: biochemical
human PDE4D = molecular target: T1, human PDE4D (Homo sapiens, UniProt Q08499); experiment: PDE enzyme assay using [3H]cAMP as substrate (SPA), PDE4D; settings: human PDE4D 0.021 nM, [3H]cAMP 47 nM
T1 construct: encoding full-length human PDE4D (NP_006194.2); HIS (C); made in house; host or cells: Sf9 (baculovirus, pFastBac1)
From the text: (§1) The nucleotide sequences encoding full-length human PDE1A (NP_001003683.1), PDE1C (NP_005011.1), PDE5A (NP_001074.2), PDE7B (NP_061818.1) and PDE9A (NP_002597.1) are inserted into pFastBac1 (Invitrogen) vector with an N-terminal HIS tag. The nucleotide sequences encoding full-length human PDE4D (NP_006194.2) and catalytic domain (residue 641-1141) of PDE3A (NP_000912.3) are inserted into pFastBac1 (Invitrogen) vector with a C-terminal HIS tag. The nucleotide sequences encoding full-length human PDE8A (NP_002596.1) and PDE11A (AAI12394.1) are inserted into pFastBac1 (Invitrogen) vector with an N-terminal Flag tag. The nucleotide sequences encoding full-length human PDE10A (AAD32595.1) are inserted into pFastBac1 (Invitrogen) vector with a C-terminal Flag-His tag. […]
(§2) All 3′, 5′ cyclic nucleotide phosphodiesterase (PDE) enzyme activities are measured with a radiometric enzyme assay based on SPA detection system (scintillation proximity assay). […] Samples are read 12 hours later in a MICROBETA™ TRILUX® Counter. […] IC50 values are calculated by plotting the normalized data vs. log [compound] and fitting the data using a four parameter logistic equation.
(§3) The following phosphodiesterase activities are measured using [^3H]cAMP as reaction substrate: human PDE3A (catalytic domain), human PDE4D, human PDE7B and human PDE8A. […]

human PDE5A = molecular target: T2, human PDE5A (Homo sapiens, UniProt O76074); experiment: PDE enzyme assay using [3H]cGMP as substrate (SPA), PDE5A; settings: human PDE5A 0.002 nM, [3H]cGMP 80 nM
T2 construct: full-length human PDE1A (NP_001003683.1), PDE1C (NP_005011.1), PDE5A (NP_001074.2); HIS (N); made in house; host or cells: Sf9 (baculovirus, pFastBac1)
From the text: as §1, §2
(§4) The following phosphodiesterase activities are measured using [^3H]cGMP as reaction substrate: human PDE2A, human PDE5A, human PDE6A/6B, human PDE9A, human PDE10A and human PDE11A. […]

human PDE2A = molecular target: T3, human PDE2A (Homo sapiens, UniProt O00408); experiment: PDE enzyme assay using [3H]cGMP as substrate (SPA), PDE2A; settings: human PDE2A 0.2 nM, [3H]cGMP 80 nM
T3 construct: full-length human PDE1B (NP_000915.1) and PDE2A (NP_002590.1); HIS (C); made in house; host or cells: Sf9 (pIEX4)
T3 sequence (O00408 whole entry): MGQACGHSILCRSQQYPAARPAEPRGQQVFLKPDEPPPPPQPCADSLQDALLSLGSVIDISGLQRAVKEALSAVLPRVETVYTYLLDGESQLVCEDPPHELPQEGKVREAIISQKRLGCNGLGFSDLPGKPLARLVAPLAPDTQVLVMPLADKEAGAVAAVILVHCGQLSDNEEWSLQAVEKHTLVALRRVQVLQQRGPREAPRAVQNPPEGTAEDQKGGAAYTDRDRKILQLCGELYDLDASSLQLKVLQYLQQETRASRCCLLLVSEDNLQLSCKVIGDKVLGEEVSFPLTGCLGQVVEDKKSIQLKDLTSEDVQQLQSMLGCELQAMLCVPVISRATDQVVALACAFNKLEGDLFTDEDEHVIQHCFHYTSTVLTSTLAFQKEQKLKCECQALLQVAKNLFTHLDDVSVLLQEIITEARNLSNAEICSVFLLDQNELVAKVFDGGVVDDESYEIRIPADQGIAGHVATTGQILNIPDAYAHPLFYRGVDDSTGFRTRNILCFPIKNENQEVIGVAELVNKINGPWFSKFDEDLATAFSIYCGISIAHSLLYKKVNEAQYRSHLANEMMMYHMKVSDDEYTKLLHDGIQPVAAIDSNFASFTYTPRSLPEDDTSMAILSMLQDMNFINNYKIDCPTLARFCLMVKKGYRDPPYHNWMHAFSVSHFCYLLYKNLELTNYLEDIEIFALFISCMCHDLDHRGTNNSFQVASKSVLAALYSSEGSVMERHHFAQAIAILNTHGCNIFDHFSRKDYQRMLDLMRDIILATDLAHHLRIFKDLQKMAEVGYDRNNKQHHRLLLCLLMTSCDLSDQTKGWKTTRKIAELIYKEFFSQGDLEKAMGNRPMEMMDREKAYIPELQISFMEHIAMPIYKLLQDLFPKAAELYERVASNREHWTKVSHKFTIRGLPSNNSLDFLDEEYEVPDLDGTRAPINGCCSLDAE
From the text: as §1, §2, §4

human PDE1C = molecular target: T4, human PDE1C (Homo sapiens, UniProt Q14123); experiment: Ca2+-calmodulin dependent PDE enzyme assay (SPA), PDE1C; settings: human PDE1C 0.0012 nM, [3H]cAMP 47 nM, calmodulin 6 U/ml; read-out: IC50 (nM) PDE 1C
T4 construct: full-length human PDE1A (NP_001003683.1), PDE1C (NP_005011.1); HIS (N); made in house; host or cells: Sf9 (baculovirus, pFastBac1)
From the text: (§5) The nucleotide sequences encoding full-length human PDE1A (NP_001003683.1), PDE1C (NP_005011.1), PDE5A (NP_001074.2), PDE7B (NP_061818.1) and PDE9A (NP_002597.1) are inserted into pFastBac1 (Invitrogen) vector with an N-terminal HIS tag. The nucleotide sequences encoding full-length human PDE4D (NP_006194.2) and catalytic domain (residue 641-1141) of PDE3A (NP_000912.3) are inserted into pFastBac1 (Invitrogen) vector with a C-terminal HIS tag. The nucleotide sequences encoding full-length human PDE8A (NP_002596.1) and PDE11A (AAI12394.1) are inserted into pFastBac1 (Invitrogen) vector with an N-terminal Flag tag. The nucleotide sequences encoding full-length human PDE10A (AAD32595.1) are inserted into pFastBac1 (Invitrogen) vector with a C-terminal Flag-His tag. The nucleotide sequences encoding full-length human PDE6A (NP_000431.2) and PDE6B (AAH00249.1) are inserted into pFastBacDual (Invitrogen) vector with an N-terminal HIS tag and N-terminal Flag tag, respectively, for production of PDE6A/6B dimer. […]
as §2, with “equation. […]” for “equation.”

human PDE11A = molecular target: T5, human PDE11A (Homo sapiens, UniProt Q9HCR9); experiment: PDE enzyme assay using [3H]cGMP as substrate (SPA), PDE11A; settings: human PDE11A 0.03 nM, [3H]cGMP 80 nM
T5 construct: full-length human PDE8A (NP_002596.1) and PDE11A (AAI12394.1); Flag (N); made in house; host or cells: Sf9 (baculovirus, pFastBac1)
From the text: as §1, §2, §4

human PDE8A = molecular target: T6, human PDE8A (Homo sapiens, UniProt O60658); experiment: PDE enzyme assay using [3H]cAMP as substrate (SPA), PDE8A; settings: human PDE8A 0.06 nM, [3H]cAMP 47 nM
T6 construct: encoding full-length human PDE8A (NP_002596.1); Flag (N); made in house; host or cells: Sf9 (baculovirus, pFastBac1)
From the text: as §1, §2, §3

human PDE7B = molecular target: T7, human PDE7B (Homo sapiens, UniProt Q9NP56); experiment: PDE enzyme assay using [3H]cAMP as substrate (SPA), PDE7B; settings: human PDE7B 0.5 nM, [3H]cAMP 47 nM
T7 construct: full-length human PDE1A (NP_001003683.1), PDE1C (NP_005011.1), PDE5A (NP_001074.2), PDE7B (NP_061818.1); HIS (N); made in house; host or cells: Sf9 (baculovirus, pFastBac1)
T7 sequence (Q9NP56 whole entry): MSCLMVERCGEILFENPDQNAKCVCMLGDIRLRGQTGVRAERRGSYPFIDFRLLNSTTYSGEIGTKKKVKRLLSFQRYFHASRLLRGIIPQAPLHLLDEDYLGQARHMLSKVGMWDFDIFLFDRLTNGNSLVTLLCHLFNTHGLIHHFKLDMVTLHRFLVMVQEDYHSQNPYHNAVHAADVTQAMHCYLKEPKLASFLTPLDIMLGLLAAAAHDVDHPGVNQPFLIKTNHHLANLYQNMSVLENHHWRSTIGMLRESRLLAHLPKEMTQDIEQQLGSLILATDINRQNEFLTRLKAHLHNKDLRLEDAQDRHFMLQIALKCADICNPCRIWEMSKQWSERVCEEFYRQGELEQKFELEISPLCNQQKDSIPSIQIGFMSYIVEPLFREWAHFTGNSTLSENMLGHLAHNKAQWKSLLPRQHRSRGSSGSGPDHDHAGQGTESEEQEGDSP
From the text: as §1, §2, §3

human PDE1B = molecular target: T8, human PDE1B (Homo sapiens, UniProt Q01064); experiment: Ca2+-calmodulin dependent PDE enzyme assay (SPA), PDE1B; settings: human PDE1B 0.074 nM, [3H]cAMP 47 nM, calmodulin 6 U/ml; read-out: IC50 (nM) PDE 1B
T8 construct: encoding full-length human PDE1B (NP_000915.1); HIS (C); made in house; host or cells: Sf9 (pIEX4)
From the text: as §5
as §2, with “equation. […]” for “equation.”

human PDE10A = molecular target: T9, human PDE10A (Homo sapiens, UniProt Q9Y233); experiment: PDE enzyme assay using [3H]cGMP as substrate (SPA), PDE10A; settings: human PDE10A 0.03 nM, [3H]cGMP 80 nM
T9 construct: encoding full-length human PDE10A (AAD32595.1); Flag-His (C); made in house; host or cells: Sf9 (baculovirus, pFastBac1)
T9 sequence (Q9Y233 1-779 isoform Q9Y233-1): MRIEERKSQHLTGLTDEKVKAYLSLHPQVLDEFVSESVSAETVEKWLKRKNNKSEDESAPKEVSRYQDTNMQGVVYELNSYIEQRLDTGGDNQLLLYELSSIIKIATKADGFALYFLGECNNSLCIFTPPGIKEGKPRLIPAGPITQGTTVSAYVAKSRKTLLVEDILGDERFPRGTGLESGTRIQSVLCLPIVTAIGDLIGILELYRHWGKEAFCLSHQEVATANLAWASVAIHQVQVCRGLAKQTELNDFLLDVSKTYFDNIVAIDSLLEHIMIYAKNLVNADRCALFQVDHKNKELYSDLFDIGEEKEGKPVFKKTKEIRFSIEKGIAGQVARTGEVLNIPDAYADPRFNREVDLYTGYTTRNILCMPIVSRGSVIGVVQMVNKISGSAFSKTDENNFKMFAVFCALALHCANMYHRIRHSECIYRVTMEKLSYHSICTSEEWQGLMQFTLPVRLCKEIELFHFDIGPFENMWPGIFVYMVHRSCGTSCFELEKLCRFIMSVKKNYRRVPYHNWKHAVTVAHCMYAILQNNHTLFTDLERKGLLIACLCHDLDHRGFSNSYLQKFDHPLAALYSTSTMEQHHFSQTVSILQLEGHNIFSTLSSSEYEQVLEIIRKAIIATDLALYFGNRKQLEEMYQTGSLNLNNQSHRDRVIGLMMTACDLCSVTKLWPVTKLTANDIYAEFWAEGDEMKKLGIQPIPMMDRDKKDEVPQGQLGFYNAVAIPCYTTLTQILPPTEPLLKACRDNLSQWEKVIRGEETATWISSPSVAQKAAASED
From the text: as §1, §2, §4

human PDE1A = molecular target: T10, human PDE1A (Homo sapiens, UniProt P54750); experiment: Ca2+-calmodulin dependent PDE enzyme assay (SPA), PDE1A; settings: human PDE1A 0.25 nM, [3H]cAMP 47 nM, calmodulin 6 U/ml; read-out: IC50 (nM) PDE 1A
T10 construct: encoding full-length human PDE1A (NP_001003683.1); HIS (N); made in house; host or cells: Sf9 (baculovirus, pFastBac1)
From the text: as §5
as §2, with “equation. […]” for “equation.”

[1] = molecular target: T11, human PDE3A (catalytic domain) (Homo sapiens, UniProt Q14432); experiment: PDE enzyme assay using [3H]cAMP as substrate (SPA), PDE3A; settings: human PDE3A catalytic domain 0.008 nM, [3H]cAMP 47 nM
T11 construct: catalytic domain (residue 641-1141) of PDE3A (NP_000912.3); HIS (C); made in house; host or cells: Sf9 (baculovirus, pFastBac1)
T11 sequence (Q14432 641-1141): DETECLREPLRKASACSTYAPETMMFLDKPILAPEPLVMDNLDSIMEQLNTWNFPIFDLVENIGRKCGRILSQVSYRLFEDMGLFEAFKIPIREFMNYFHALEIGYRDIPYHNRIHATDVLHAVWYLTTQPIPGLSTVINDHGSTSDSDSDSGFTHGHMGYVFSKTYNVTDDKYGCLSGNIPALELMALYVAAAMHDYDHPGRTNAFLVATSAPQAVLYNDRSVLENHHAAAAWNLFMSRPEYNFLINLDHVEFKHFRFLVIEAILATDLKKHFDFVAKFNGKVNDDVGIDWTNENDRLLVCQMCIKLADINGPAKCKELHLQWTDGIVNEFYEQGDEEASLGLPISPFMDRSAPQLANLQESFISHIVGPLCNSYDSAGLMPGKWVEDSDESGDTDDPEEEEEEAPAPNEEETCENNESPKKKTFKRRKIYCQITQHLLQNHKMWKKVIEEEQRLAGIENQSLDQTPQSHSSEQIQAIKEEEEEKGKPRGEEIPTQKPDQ
From the text: as §1, §2, §3

human PDE9A = molecular target: T12, human PDE9A (Homo sapiens, UniProt O76083); experiment: PDE enzyme assay using [3H]cGMP as substrate (SPA), PDE9A; settings: human PDE9A 1 nM, [3H]cGMP 20 nM
T12 construct: full-length human PDE1A (NP_001003683.1), PDE1C (NP_005011.1), PDE5A (NP_001074.2), PDE7B (NP_061818.1) and PDE9A (NP_002597.1); HIS (N); made in house; host or cells: Sf9 (baculovirus, pFastBac1)
T12 sequence (O76083 whole entry): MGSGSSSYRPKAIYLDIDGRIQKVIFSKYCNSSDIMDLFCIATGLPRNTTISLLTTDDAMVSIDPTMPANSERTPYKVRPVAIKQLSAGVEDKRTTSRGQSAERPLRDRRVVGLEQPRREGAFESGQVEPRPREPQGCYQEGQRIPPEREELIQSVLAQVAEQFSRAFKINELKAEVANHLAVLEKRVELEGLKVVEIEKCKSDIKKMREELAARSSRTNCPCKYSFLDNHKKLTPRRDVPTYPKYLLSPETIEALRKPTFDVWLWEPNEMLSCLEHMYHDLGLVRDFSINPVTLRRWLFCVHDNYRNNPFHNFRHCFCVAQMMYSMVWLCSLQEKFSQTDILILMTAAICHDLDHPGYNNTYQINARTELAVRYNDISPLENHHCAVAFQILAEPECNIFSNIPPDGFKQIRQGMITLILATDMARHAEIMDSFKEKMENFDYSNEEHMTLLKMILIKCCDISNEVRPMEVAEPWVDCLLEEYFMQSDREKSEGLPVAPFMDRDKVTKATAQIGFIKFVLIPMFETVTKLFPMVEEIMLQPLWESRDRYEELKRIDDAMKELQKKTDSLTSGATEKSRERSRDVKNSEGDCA
From the text: as §1, §2, §4

human PDE6A/6B = molecular target: T13, human PDE6A/6B (Homo sapiens, UniProt P16499+P35913); experiment: PDE enzyme assay using [3H]cGMP as substrate (SPA), PDE6A/6B dimer; settings: human PDE6AB dimer 5 nM, [3H]cGMP 80 nM; read-out: IC50 (nM) PDE 6AB
T13 construct: encoding full-length human PDE6A (NP_000431.2) and PDE6B (AAH00249.1); HIS (N); Flag (N); made in house; host or cells: Sf9 (baculovirus, pFastBacDual)
T13 sequence (P16499 whole entry): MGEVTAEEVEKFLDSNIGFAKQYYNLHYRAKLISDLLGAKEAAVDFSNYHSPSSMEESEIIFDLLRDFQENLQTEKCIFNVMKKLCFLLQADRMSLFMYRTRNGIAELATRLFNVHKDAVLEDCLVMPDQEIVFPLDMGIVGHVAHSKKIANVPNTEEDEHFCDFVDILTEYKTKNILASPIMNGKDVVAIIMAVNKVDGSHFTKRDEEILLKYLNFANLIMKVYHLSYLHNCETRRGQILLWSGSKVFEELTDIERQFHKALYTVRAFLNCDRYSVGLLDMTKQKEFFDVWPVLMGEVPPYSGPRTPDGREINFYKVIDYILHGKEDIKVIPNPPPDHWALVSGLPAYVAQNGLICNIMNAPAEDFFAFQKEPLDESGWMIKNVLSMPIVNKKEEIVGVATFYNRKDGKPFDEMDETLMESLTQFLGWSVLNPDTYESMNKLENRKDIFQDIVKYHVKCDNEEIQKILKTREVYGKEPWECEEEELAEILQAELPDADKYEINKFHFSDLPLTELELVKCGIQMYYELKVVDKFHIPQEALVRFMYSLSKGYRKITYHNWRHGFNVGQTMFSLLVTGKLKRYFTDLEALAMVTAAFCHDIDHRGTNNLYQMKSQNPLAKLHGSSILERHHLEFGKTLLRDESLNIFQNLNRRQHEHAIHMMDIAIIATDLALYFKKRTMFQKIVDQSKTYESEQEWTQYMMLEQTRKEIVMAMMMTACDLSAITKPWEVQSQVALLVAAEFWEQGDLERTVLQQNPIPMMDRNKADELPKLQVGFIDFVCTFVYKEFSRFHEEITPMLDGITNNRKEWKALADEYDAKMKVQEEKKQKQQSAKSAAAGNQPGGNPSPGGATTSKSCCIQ
T13 sequence (P35913 1-853 isoform P35913-2): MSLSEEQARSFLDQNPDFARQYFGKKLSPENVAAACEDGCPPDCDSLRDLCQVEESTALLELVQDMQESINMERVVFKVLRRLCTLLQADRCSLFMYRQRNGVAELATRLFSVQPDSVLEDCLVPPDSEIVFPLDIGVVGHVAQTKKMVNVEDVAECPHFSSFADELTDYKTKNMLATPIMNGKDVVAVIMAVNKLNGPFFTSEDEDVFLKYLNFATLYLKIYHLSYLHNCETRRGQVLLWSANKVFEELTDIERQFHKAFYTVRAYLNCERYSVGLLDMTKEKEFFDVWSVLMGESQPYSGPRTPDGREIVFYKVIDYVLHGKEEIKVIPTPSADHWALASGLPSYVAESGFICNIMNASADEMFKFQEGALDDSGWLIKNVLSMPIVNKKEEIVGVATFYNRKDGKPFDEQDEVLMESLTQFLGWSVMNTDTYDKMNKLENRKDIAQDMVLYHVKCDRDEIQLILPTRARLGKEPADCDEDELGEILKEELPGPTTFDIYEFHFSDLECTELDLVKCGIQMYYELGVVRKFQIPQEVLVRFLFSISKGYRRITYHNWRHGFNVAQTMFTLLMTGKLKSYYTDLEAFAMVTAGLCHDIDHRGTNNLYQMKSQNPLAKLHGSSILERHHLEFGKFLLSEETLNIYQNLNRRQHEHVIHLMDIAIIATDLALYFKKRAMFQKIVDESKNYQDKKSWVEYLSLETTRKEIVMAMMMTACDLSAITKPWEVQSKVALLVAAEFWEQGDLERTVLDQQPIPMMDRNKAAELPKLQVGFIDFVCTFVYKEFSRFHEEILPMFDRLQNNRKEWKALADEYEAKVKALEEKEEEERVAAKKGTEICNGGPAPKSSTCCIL
From the text: as §1, §2, §4

IC50 (human PDE4D): 11900 ± 1580 nM | IC50 (human PDE5A): 3130 nM | IC50 (human PDE2A): > 10000 nM | IC50 (human PDE1C): 2.65 ± 0.9 nM | IC50 (human PDE11A): 389 ± 179 nM | IC50 (human PDE8A): > 10000 nM | IC50 (human PDE7B): 4170 nM | IC50 (human PDE1B): 16.3 ± 9.1 nM | IC50 (human PDE10A): 9340 nM | IC50 (human PDE1A): 10.9 ± 2.6 nM | IC50 [1]: > 100000 nM | IC50 (human PDE9A): > 10000 nM | IC50 (human PDE6A/6B): 2460 ± 247 nM
SMILES: CCCCn1c(=O)c2nnc(C3(C)CC3)n2c2ncccc21 [Example 1, 5-butyl-9-(1-methylcyclopropyl)pyrido[3,2-e][1,2,4]triazolo[4,3-a]pyrazin-6(5H)-one]
